{"source": "patent US4816472A", "about": "“Derivatives of 19,20-Bis-nor-prostanoic acid with antiulcer and anorectic activity, process for their preparation and pharmaceutical compositions thereof” (Istituto Biochemico Italiano Giovanni Lorenzini S.p.A., priority 1985, dated 1989)", "key": {"peptic ulcer": {"tested_on": "peptic ulcer", "details": "previous finding; cited from earlier work"}, "[1]": {"tested_on": "ethanol induced ulcers in the rat", "assay": "Ethanol induced ulcers in the rat", "format": "in vivo", "experimental": "(§1) The anitulcer activity of these derivatives was evaluated on ulcers induced by the administration of ethanol, hydrochloric acid and sodium hydroxide in the rat, also on gastric ulcers induced by aspirin in the rat, and on their influence on gastric secretions in the rat.\n(1) Ethanol induced ulcers in the rat:\nThe method used is that described by A. Robert et al, in Gastroenterology 77,433 (1979), the disclosure of which is incorporated herein by reference."}, "[2]": {"tested_on": "HCl induced ulcers in the rat", "assay": "Hydrochloric acid induced ulcers in the rat", "format": "in vivo", "experimental": "as §1\n(2) Hydrochloric acid induced ulcers in the rat:\nThe method used for this test is that described by A. Robert et al, in Gastroenterology, 77,433, (1979), the disclosure of which is incorporated herein by reference."}, "[3]": {"tested_on": "NaOH induced ulcers in the rat", "assay": "Sodium hydroxide induced ulcers in the rat", "format": "in vivo", "experimental": "as §1\n(3) Sodium hydroxide induced ulcers in the rat:\nAlso this test is performed in accordance with the method described by A. Robert et al, in Gastroenterology, 77,433 (1979), the disclosure of which is incorporated herein by reference."}}, "note": "Where a name gives a salt, the structure may show the parent alone.", "data": [{"compound": "CCCCCCC1CCC(O)C1CCCCCCC(=O)O", "note": "(stereo not drawn) [Rosaprostol, 9-hydroxy-91,20-bis-nor-prostanoic acid sodium salt]", "values": [{"measurement": "antiulcer properties of the natural prostaglandins / other prostaglandin properties", "setting": "peptic ulcer", "result": "maintaining the antiulcer properties of the natural prostaglandins, completely loses the others"}]}, {"compound": "CCCCCCC1CCC(N)C1CCCCCCC(=O)O", "note": "(stereo not drawn) [drawing 8]", "values": [{"measurement": "Percent inhibition of ethanol induced ulcers in the rat", "setting": "[1]; 2.5 mg/kg", "result": 40, "unit": "%"}, {"measurement": "Percent inhibition of ethanol induced ulcers in the rat", "setting": "[1]; 5 mg/kg", "result": 50, "unit": "%"}, {"measurement": "Percent inhibition of ethanol induced ulcers in the rat", "setting": "[1]; 10 mg/kg", "result": 70, "unit": "%"}, {"measurement": "Percent inhibition of ethanol induced ulcers in the rat", "setting": "[1]; 25 mg/kg", "result": 67, "unit": "%"}, {"measurement": "Percent inhibition of ethanol induced ulcers in the rat", "setting": "[1]; 50 mg/kg", "result": 88, "unit": "%"}]}, {"compound": "CCCCCCC1CCC(NC)C1CCCCCCC(=O)O", "note": "(stereo not drawn) [drawing 9]", "values": [{"measurement": "Percent inhibition of ethanol induced ulcers in the rat", "setting": "[1]; 5 mg/kg", "result": 44, "unit": "%"}, {"measurement": "Percent inhibition of ethanol induced ulcers in the rat", "setting": "[1]; 10 mg/kg", "result": 67, "unit": "%"}, {"measurement": "Percent inhibition of ethanol induced ulcers in the rat", "setting": "[1]; 25 mg/kg", "result": 86, "unit": "%"}, {"measurement": "Percent inhibition of ethanol induced ulcers in the rat", "setting": "[1]; 50 mg/kg", "result": 91, "unit": "%"}, {"measurement": "Percent inhibition of ethanol induced ulcers in the rat", "setting": "[1]; 100 mg/kg", "result": 91, "unit": "%"}]}, {"compound": "CCCCCCC1CCC(N(C)C)C1CCCCCCC(=O)O", "note": "(stereo not drawn) [drawing 10]", "values": [{"measurement": "Percent inhibition of ethanol induced ulcers in the rat", "setting": "[1]; 2.5 mg/kg", "result": 24, "unit": "%"}, {"measurement": "Percent inhibition of ethanol induced ulcers in the rat", "setting": "[1]; 5 mg/kg", "result": 43, "unit": "%"}, {"measurement": "Percent inhibition of ethanol induced ulcers in the rat", "setting": "[1]; 10 mg/kg", "result": 62, "unit": "%"}, {"measurement": "Percent inhibition of ethanol induced ulcers in the rat", "setting": "[1]; 50 mg/kg", "result": 97, "unit": "%"}, {"measurement": "Percent inhibition of ethanol induced ulcers in the rat", "setting": "[1]; 100 mg/kg", "result": 91, "unit": "%"}]}, {"compound": "CCCCCCC1CCC(NC(C)C)C1CCCCCCC(=O)O", "note": "(stereo not drawn) [drawing 11]", "values": [{"measurement": "Percent inhibition of ethanol induced ulcers in the rat", "setting": "[1]; 10 mg/kg", "result": 9, "unit": "%"}, {"measurement": "Percent inhibition of ethanol induced ulcers in the rat", "setting": "[1]; 25 mg/kg", "result": 34, "unit": "%"}, {"measurement": "Percent inhibition of ethanol induced ulcers in the rat", "setting": "[1]; 50 mg/kg", "result": 65, "unit": "%"}]}, {"compound": "CCCCCCC1CCC(NC(C)=O)C1CCCCCCC(=O)O", "note": "(stereo not drawn) [drawing 12]", "values": [{"measurement": "Percent inhibition of ethanol induced ulcers in the rat", "setting": "[1]; 10 mg/kg", "result": 25, "unit": "%"}, {"measurement": "Percent inhibition of ethanol induced ulcers in the rat", "setting": "[1]; 100 mg/kg", "result": 78, "unit": "%"}]}, {"compound": "CCCCCCC1CCC(O)C1CCCCCCC(=O)O", "note": "(stereo not drawn) [drawing 13]", "values": [{"measurement": "Percent inhibition of ethanol induced ulcers in the rat", "setting": "[1]; 50 mg/kg", "result": 9, "unit": "%"}, {"measurement": "Percent inhibition of ethanol induced ulcers in the rat", "setting": "[1]; 100 mg/kg", "result": 37, "unit": "%"}]}, {"compound": "CCCCCCC1CCC(N)C1CCCCCCC(=O)O", "note": "(stereo not drawn) [drawing 14]", "values": [{"measurement": "Percent inhibition of HCl induced ulcers in the rat", "setting": "[2]; 50 mg/kg", "result": 68, "unit": "%"}, {"measurement": "Percent inhibition of HCl induced ulcers in the rat", "setting": "[2]; 100 mg/kg", "result": 89, "unit": "%"}, {"measurement": "Percent inhibition of HCl induced ulcers in the rat", "setting": "[2]; 200 mg/kg", "result": 91, "unit": "%"}]}, {"compound": "CCCCCCC1CCC(NC)C1CCCCCCC(=O)O", "note": "(stereo not drawn) [drawing 15]", "values": [{"measurement": "Percent inhibition of HCl induced ulcers in the rat", "setting": "[2]; 25 mg/kg", "result": 40, "unit": "%"}, {"measurement": "Percent inhibition of HCl induced ulcers in the rat", "setting": "[2]; 50 mg/kg", "result": 49, "unit": "%"}, {"measurement": "Percent inhibition of HCl induced ulcers in the rat", "setting": "[2]; 100 mg/kg", "result": 66, "unit": "%"}]}, {"compound": "CCCCCCC1CCC(N(C)C)C1CCCCCCC(=O)O", "note": "(stereo not drawn) [drawing 16]", "values": [{"measurement": "Percent inhibition of HCl induced ulcers in the rat", "setting": "[2]; 25 mg/kg", "result": 23, "unit": "%"}, {"measurement": "Percent inhibition of HCl induced ulcers in the rat", "setting": "[2]; 50 mg/kg", "result": 55, "unit": "%"}, {"measurement": "Percent inhibition of HCl induced ulcers in the rat", "setting": "[2]; 100 mg/kg", "result": 63, "unit": "%"}]}, {"compound": "CCCCCCC1CCC(NC(C)C)C1CCCCCCC(=O)O", "note": "(stereo not drawn) [drawing 17]", "values": [{"measurement": "Percent inhibition of HCl induced ulcers in the rat", "setting": "[2]; 25 mg/kg", "result": 0, "unit": "%"}, {"measurement": "Percent inhibition of HCl induced ulcers in the rat", "setting": "[2]; 50 mg/kg", "result": 46, "unit": "%"}, {"measurement": "Percent inhibition of HCl induced ulcers in the rat", "setting": "[2]; 100 mg/kg", "result": 54, "unit": "%"}]}, {"compound": "CCCCCCC1CCC(NC(C)=O)C1CCCCCCC(=O)O", "note": "(stereo not drawn) [drawing 18]", "values": [{"measurement": "Percent inhibition of HCl induced ulcers in the rat", "setting": "[2]; 25 mg/kg", "result": 15, "unit": "%"}, {"measurement": "Percent inhibition of HCl induced ulcers in the rat", "setting": "[2]; 50 mg/kg", "result": 66, "unit": "%"}]}, {"compound": "CCCCCCC1CCC(O)C1CCCCCCC(=O)O", "note": "(stereo not drawn) [drawing 19]", "values": [{"measurement": "Percent inhibition of HCl induced ulcers in the rat", "setting": "[2]; 25 mg/kg", "result": 15, "unit": "%"}, {"measurement": "Percent inhibition of HCl induced ulcers in the rat", "setting": "[2]; 100 mg/kg", "result": 45, "unit": "%"}, {"measurement": "Percent inhibition of HCl induced ulcers in the rat", "setting": "[2]; 200 mg/kg", "result": 63, "unit": "%"}]}, {"compound": "CCCCCCC1CCC(N)C1CCCCCCC(=O)O", "note": "(stereo not drawn) [drawing 20]", "values": [{"measurement": "Percent inhibition of NaOH induced ulcers in the rat", "setting": "[3]; 5 mg/kg", "result": 37, "unit": "%"}, {"measurement": "Percent inhibition of NaOH induced ulcers in the rat", "setting": "[3]; 10 mg/kg", "result": 54, "unit": "%"}, {"measurement": "Percent inhibition of NaOH induced ulcers in the rat", "setting": "[3]; 25 mg/kg", "result": 80, "unit": "%"}]}, {"compound": "CCCCCCC1CCC(NC)C1CCCCCCC(=O)O", "note": "(stereo not drawn) [drawing 21]", "values": [{"measurement": "Percent inhibition of NaOH induced ulcers in the rat", "setting": "[3]; 12.5 mg/kg", "result": 81, "unit": "%"}, {"measurement": "Percent inhibition of NaOH induced ulcers in the rat", "setting": "[3]; 25 mg/kg", "result": 87, "unit": "%"}]}, {"compound": "CCCCCCC1CCC(N(C)C)C1CCCCCCC(=O)O", "note": "(stereo not drawn) [drawing 22]", "values": [{"measurement": "Percent inhibition of NaOH induced ulcers in the rat", "setting": "[3]; 12.5 mg/kg", "result": 52, "unit": "%"}, {"measurement": "Percent inhibition of NaOH induced ulcers in the rat", "setting": "[3]; 25 mg/kg", "result": 63, "unit": "%"}, {"measurement": "Percent inhibition of NaOH induced ulcers in the rat", "setting": "[3]; 50 mg/kg", "result": 74, "unit": "%"}]}, {"compound": "CCCCCCC1CCC(NC(C)C)C1CCCCCCC(=O)O", "note": "(stereo not drawn) [drawing 23]", "values": [{"measurement": "Percent inhibition of NaOH induced ulcers in the rat", "setting": "[3]; 12.5 mg/kg", "result": 13, "unit": "%"}, {"measurement": "Percent inhibition of NaOH induced ulcers in the rat", "setting": "[3]; 25 mg/kg", "result": 46, "unit": "%"}, {"measurement": "Percent inhibition of NaOH induced ulcers in the rat", "setting": "[3]; 50 mg/kg", "result": 54, "unit": "%"}]}, {"compound": "CCCCCCC1CCC(NC(C)=O)C1CCCCCCC(=O)O", "note": "(stereo not drawn) [drawing 24]", "values": [{"measurement": "Percent inhibition of NaOH induced ulcers in the rat", "setting": "[3]; 12.5 mg/kg", "result": 7, "unit": "%"}, {"measurement": "Percent inhibition of NaOH induced ulcers in the rat", "setting": "[3]; 25 mg/kg", "result": 19, "unit": "%"}, {"measurement": "Percent inhibition of NaOH induced ulcers in the rat", "setting": "[3]; 50 mg/kg", "result": 59, "unit": "%"}]}]}
